Test system: snoring of a treated person
Test: anti-snoring effect when applied in the pharynx via the mouth
Format: in vivo
Details: active component; test details not given
Excerpt: The invention provides for this purpose a composition for reducing snoring, comprising at least an active quantity of at least one active component with astringent properties and a physiologically acceptable excipient. Such a composition is preferably applied in the pharynx. […] The composition according to the invention can be applied usefully not only in the domestic domain but also in professional situations where a plurality of people must necessarily sleep in the same space, such as in a dormitory, a hospital or military barracks. […] All formulations are based on water: the shown percentages by weight are thus supplemented to 100% with water. Composition A is a liquid composition which can be used for applying with a spray or as droplets. Composition B is a gel formulation. Composition C is a foam.

C[C@@H]1C[C@H]2OC(=O)[C@@]3(C)CCC[C@@](C)([C@@H]23)[C@@]1(O)CCc1ccoc1 [Marrubiin, 6-(2-furan-3-yl-ethyl)-6-hydroxy-2a,5a,7-trimethyldekahydronafto[1,8-bc]furan-2-on]
anti-snoring effect / effects on the level of snoring of a treated person: particularly good anti-snoring effect
